Reference: patent US20210348164A1, “ENDOGENOUS CYTOPLASMIC ALU COMPLEMENTARY DNA IN AGE-RELATED MACULAR DEGENERATION” (University of Virginia Patent Foundation, priority 2018, published 2021)

System: Alu cDNA in ARPE-19 cells
Experiment: Alu cDNA in ARPE-19 cells (Alu c-PCR, in situ hybridization)
Type: cell-based, human
Settings: heat shock or DICER1 AS, in situ hybridization
Protocol: Cell culture and transfection. Primary mouse and human RPE cells were isolated as previously described (Kerur et al., 2018). All cells were maintained at 37° C. in a 5% CO2 environment. Mouse RPE cells were cultured in DMEM supplemented with 20% FBS and penicillin/streptomycin antibiotics at standard concentrations; primary human RPE cells were maintained in DMEM supplemented with 10% FBS and antibiotics. The human RPE cell line ARPE19 was cultured as previously described (Kerur et al., 2018) and maintained in DMEM-F12 containing penicillin/streptomycin, Fungizone, and gentamicin. HEK293T cells were cultured in DMEM with 10% fetal bovine serum (FBS) with 100 U/ml penicillin/streptomycin and 2 mM L-glutamine. […]
In situ hybridization. […] Visualization of fluorescein-labelled probe was performed with the TSA™ plus fluorescence system or the TSA™ plus Cy5 system (PerkinElmer). The fluorescent or Cy5 signals were detected using a Leica SP-5 or MR Nikon confocal microscope system. […]

L1 siRNA: siRNA targeting L1; cholesterol-conjugated mouse L1 siRNA (SEQ ID NOs: 48 and 49) in vivo, human L1 siRNA sequences in human cells (chain 1 ACUAUUACUCUGAUACCTT; chain 2 UGUACUAAGGUCAAAUCTT; cholesterol conjugated, position not given here)
Alu cDNA induction: reduced Alu cDNA formation
